Like-named read-outs stand apart in the source and are kept apart here. Bounds are passed on as bounds.

In one experiment the test system is SCD1. The experiment can be described thus: Measurement of SCD1 expression in SZ95-SCD1-HiBit cells (HiBiT assay). The conditions noted are these: Homo sapiens, 48 h; for EC50: SCD1 protein production, luminescence, initial dilution 1:3 in DMSO, read-out: HiBit EC50. It is filed as cell-based. From the text:
Measurement of SCD1 Expression in SZ95-SCD1-HiBit Cells
SCD1 expression levels in SZ95 cells were quantitated using the HiBiT system (Promega) in which a small peptide sequence (SmBiT) with a larger protein (LgBiT) reconstitutes luciferase activity and can generate a luminescent signal used for quantitation. SZ95-SCD1-HiBit cells were generated by editing the SCD1 gene of SZ95 cells resulting in the addition of an 8 amino acid linker sequence (gssggssg, SEQ ID NO:1) followed by an 11-amino acid SmBiT sequence (vsgwrlfkkis, SEQ ID NO:2) at the carboxy-terminus of the SCD1 protein. The gRNA targeting sequence used was […] (SEQ ID NO: 3) and the SCD1 insertion oligonucleotide encoding the SmBiT sequence was:
SZ95-SCD1-HiBit cells were seeded in 384-well cell culture white plates at a density of 3000 cells/30 μl. Water was added to edge wells to avoid evaporation. Cells were incubated in a humidified incubator with 5% CO2 at 37° C. overnight. Tested compounds were diluted at a ratio of 1:3 in DMSO using an Agilent BRAVO Automated Liquid Handling Platform and, after further serial dilutions, added to cells at final concentrations starting from 18 μM. 2-(3-(3-((2-chloro-3-(trifluoromethyl)benzyl)(2,2-diphenylethyl)amino)propoxy)phenyl)acetic acid was used as a reference compound in each plate. Cells in the assay plate were incubated in a humidified incubator with 5% CO2 at 37° C. for 48 h.
The assay plates were removed from the incubator and allowed to equilibrate to room temperature. Nano-Glo® HiBiT Detection Reagent (Promega; a mixture of Nano-Glo HiBiT Detection Buffer, Nano-Glo HiBiT Detection Substrate, and LgBiT protein, according to the manufacturer's instructions) was added into assay plates, at a volume equal to cell culture medium in each well. Plates were placed on an orbital shaker at a speed of 300-600 rpm for 10 min at room temperature, and read on an EnVision Plate Reader using luminescence detection with a 1 second read time.
The assay measures the increase in SCD1 protein production in vitro. Amax refers to the percent EC50 of the tested compound compared to a reference compound, 2-(3-(3-((2-chloro-3-(trifluoromethyl)benzyl)(2,2-diphenylethyl)amino)propoxy)phenyl)acetic acid.
A general note: HiBiT is a short tag that completes a luciferase, so light tracks the accessible tagged protein.

The next experiment deals with SZ95 sebocytes. The experiment in a line: Sentinel Lipid Assay (SLA), desaturation index in SZ95 sebocytes. It is filed as cell-based. To be noted: Homo sapiens, 72 h; for EC50: desaturation index, lowest dose used 4.6 nM, read-out: SLA EC50. On the procedure:
Sentinel Lipid Assay (SLA)
The sentinel lipid assay was used quantify the change in the global desaturation index in SZ95 sebocytes upon administration of certain LXR agonist compounds provided herein. The assay measures a smaller subset of lipid analytes in meibum (termed “sentinel lipids”) which would model the global changes the population of both saturated and desaturated lipids in the cells. In order to define this smaller subset of lipids, a complete lipid profile was recorded on dose response curves (eight levels from 4 nM to 10 uM) of Compounds 1-72. An elastic net regression model was applied separately to both the saturated and desaturated lipids to determine the minimum combination of coefficients and analytes, which could be used to adequately model the total population of lipids. The elastic net model was able to reduce the behavior of 425 lipids to 11 lipids and the correlation between the desaturation indices observed using the complete set of lipids with from the 11 sentinel lipids was 0.96.
A medium throughput assay was created using this reduced set of sentinel lipids. A single batch is defined as triplicate examples of three unique plates (i.e., a single batch of cells is used to create nine plates for LC-MSMS analysis). Lipids were extracted from the cells using a 1:1 mixture of methylene chloride/methanol containing 10 nM of deuterated standards of triglycerides, which are used as internal standards for quantitating the lipid abundance. The lipids were separated prior to mass spectrometric analysis using a five minute HPLC gradient. The abundance of the sentinel lipids and the internal standards are measured using multiple reaction monitor mode (MRM) on a triple quadrupole mass spectrometer. The data was transformed from total ion current to nmoles/10^6 cells, which are multiplied by the coefficients from the elastic net model to determine the effective desaturated and saturated content, and therein the desaturation index of the dosed cells. In order to compare compounds from multiple batches with one another, the measure raw desaturation index was normalized by dividing it by the desaturation index of the DMSO dosed cells, and all data was assessed as the fraction by which the compound increases the desaturation index above 1.
SZ95 (immortalized human sebaceous gland cells) cells were seeded in Greiner bio-one 96-well polypropylene plates that were pre-treated with 50 μg/mL Human Plasma Fibronectin (Thermo Fisher Scientific) at a density of 10^4 cells/135 μl. Cells were incubated in a humidified incubator with 5% CO2 at 37° C. overnight. Test compounds were diluted at a ratio of 1:3 and added to cells at final concentrations starting from 10 μM. 2-(3-(3-((2-chloro-3-(trifluoromethyl)benzyl)(2,2-diphenylethyl)amino)propoxy)phenyl)acetic acid was used as a positive control reference compound in each plate. Cells in the assay plate were incubated in a humidified incubator with 5% CO2 at 37° C. for 72 h.
Culture medium was removed from the cells and cells in culture plates were washed with ice cold phosphate buffered saline three times. Plates were heat sealed and stored in a −80° C. freezer prior to Sentinel lipid assay. The Amax value refers to the percent EC50 of the tested compound compared to a reference compound, 2-(3-(3-((2-chloro-3-(trifluoromethyl)benzyl)(2,2-diphenylethyl)amino)propoxy)phenyl)acetic acid.

Setting [1] is: normalized Amax based on the reference compound Amax of 100%, read-out: HiBit Normalized Amax.
Setting [2] is: SZ95-SCD1-HiBit cells, compared to reference compound, read-out: HiBit Amax.
The mark [3] stands for this setting: normalized Amax based on the reference compound Amax of 100%, read-out: SLA Normalized Amax.
Where [4] appears, read: SZ95 cells, compared to reference compound, read-out: SLA Amax.

On to `CCCC1(C)C(=O)N(Cc2nc(-c3ccc(Oc4ccccc4S(=O)(=O)CC(C)C)c(C(F)(F)F)c3)no2)C(=O)N1CCN1CCOCC1` (stereo not drawn) [Compound 2, 3-((3-(4-(2-(isobutylsulfonyl)phenoxy)-3-(trifluoromethyl)phenyl)-1,2,4-oxadiazol-5-yl)methyl)-5-methyl-1-(2-morpholinoethyl)-5-propylimidazolidine-2,4-dione], for which the Emax was determined as 95.2% in the experiment on SCD1 (setting [1]), 90.5% in the experiment on SCD1 (setting [2]), 190% in the experiment with SZ95 sebocytes (setting [3]) and 182% in the experiment with SZ95 sebocytes (setting [4]). In addition, the concentration for a half-maximal effect (EC50) is 1.5 nM in the experiment with SCD1 (SZ95-SCD1-HiBit cells) and at most 4.6 nM with SZ95 sebocytes (SZ95 cells).
For `CC1(C)C(=O)N(Cc2nc(-c3ccc(OCC(C)(C(F)(F)F)C(F)(F)F)c(C(F)(F)F)c3)no2)C(=O)N1CCC1CCOCC1` [Compound 1, 5,5-dimethyl-1-(2-(tetrahydro-2H-pyran-4-yl)ethyl)-3-((3-(4-(3,3,3-trifluoro-2-methyl-2-(trifluoromethyl)propoxy)-3-(trifluoromethyl)phenyl)-1,2,4-oxadiazol-5-yl)methyl)imidazolidine-2,4-dione], the Emax was found to be 91.7% with SCD1 (setting [1]), 87.2% in the experiment with SCD1 (setting [2]), 87.1% with SZ95 sebocytes (setting [3]) and 83.6% in the experiment with SZ95 sebocytes (setting [4]). In addition, the concentration for a half-maximal effect (EC50) in the experiment with SCD1 (SZ95-SCD1-HiBit cells) was 0.496 nM; in the experiment with SZ95 sebocytes (SZ95 cells) it was at most 4.6 nM.
In the case of `CC(C)CS(=O)(=O)c1ccccc1Oc1ccc(-c2noc(CN3C(=O)N(CCN4CCOCC4)C(C)(C)C3=O)n2)cc1Cl` [Compound 49, 3-((3-(3-chloro-4-(2-(isobutylsulfonyl)phenoxy)phenyl)-1,2,4-oxadiazol-5-yl)methyl)-5,5-dimethyl-1-(2-morpholinoethyl)imidazolidine-2,4-dione], the Emax came to 74.6% with SCD1 (setting [1]), 70.9% in the experiment on SCD1 (setting [2]), 114% in the experiment with SZ95 sebocytes (setting [3]) and 110% with SZ95 sebocytes (setting [4]). In addition, the EC50 in the experiment with SCD1 (SZ95-SCD1-HiBit cells) is 11.9 nM; in the experiment with SZ95 sebocytes (SZ95 cells), 40.6 nM.
In the case of `CC(C)CS(=O)(=O)c1ccccc1Oc1ccc(-c2noc(CN3C(=O)N(CCN4CCOCC4)C4(CCN(C(=O)c5cncnc5)CC4)C3=O)n2)cc1C(F)(F)F` [Compound 29, 3-((3-(4-(2-(isobutylsulfonyl)phenoxy)-3-(trifluoromethyl)phenyl)-1,2,4-oxadiazol-5-yl)methyl)-1-(2-morpholinoethyl)-8-(pyrimidine-5-carbonyl)-1,3,8-triazaspiro[4.5]decane-2,4-dione], the Emax was 87.7% with SCD1 (setting [1]), 83.4% in the experiment on SCD1 (setting [2]), 135% in the experiment with SZ95 sebocytes (setting [3]) and 129% in the experiment with SZ95 sebocytes (setting [4]). Also, the 50% effective concentration (EC50) was 0.796 nM in the experiment with SCD1 (SZ95-SCD1-HiBit cells) and at most 4.6 nM in the experiment on SZ95 sebocytes (SZ95 cells).
On to `COCCN(CCOC)CCS(=O)(=O)c1ccccc1Oc1ccc(-c2noc(CN3C(=O)N(CCN4CCOCC4)C(C)(C)C3=O)n2)cc1C(F)(F)F` [Compound 61, 3-((3-(4-(2-((2-(bis(2-methoxyethyl)amino)ethyl)sulfonyl)phenoxy)-3-(trifluoromethyl)phenyl)-1,2,4-oxadiazol-5-yl)methyl)-5,5-dimethyl-1-(2-morpholinoethyl)imidazolidine-2,4-dione], for which the Emax amounted to 78.9% with SCD1 (setting [1]), 75% with SCD1 (setting [2]), 178% in the experiment with SZ95 sebocytes (setting [3]) and 171% with SZ95 sebocytes (setting [4]). Besides, the EC50 was 9.1 nM in the experiment with SCD1 (SZ95-SCD1-HiBit cells) and at most 4.6 nM in the experiment on SZ95 sebocytes (SZ95 cells).
With `CC(C)CS(=O)(=O)c1ccccc1Oc1ccc(-c2noc(CN3C(=O)N(CCN4CCOCC4)C4(CCN(C(=O)CCCCC(=O)O)CC4)C3=O)n2)cc1C(F)(F)F` [Compound 67, 6-(3-((3-(4-(2-(isobutylsulfonyl)phenoxy)-3-(trifluoromethyl)phenyl)-1,2,4-oxadiazol-5-yl)methyl)-1-(2-morpholinoethyl)-2,4-dioxo-1,3,8-triazaspiro[4.5]decan-8-yl)-6-oxohexanoic acid], the Emax in the experiment with SCD1 (setting [1]) came out at 88.9%; with SCD1 (setting [2]), 84.5%; with SZ95 sebocytes (setting [3]), 103%; in the experiment on SZ95 sebocytes (setting [4]), 99.1%. The EC50 in the experiment on SCD1 (SZ95-SCD1-HiBit cells) was 3.94 nM; in the experiment on SZ95 sebocytes (SZ95 cells) it was at most 4.6 nM.
In the case of `CC(C)CS(=O)(=O)c1ccccc1Oc1ccc(-c2noc(CN3C(=O)N(CCN4CCOCC4)C4(CCN(CC5CCOCC5)CC4)C3=O)n2)cc1C(F)(F)F` [Compound 26, 3-((3-(4-(2-(isobutylsulfonyl)phenoxy)-3-(trifluoromethyl)phenyl)-1,2,4-oxadiazol-5-yl)methyl)-1-(2-morpholinoethyl)-8-((tetrahydro-2H-pyran-4-yl)methyl)-1,3,8-triazaspiro[4.5]decane-2,4-dione], the Emax with SCD1 (setting [1]) turned out to be 96.3%; with SCD1 (setting [2]), 91.6%; in the experiment on SZ95 sebocytes (setting [3]), 113%; with SZ95 sebocytes (setting [4]) it was 108%. Also, the concentration for a half-maximal effect (EC50) is 0.796 nM in the experiment with SCD1 (SZ95-SCD1-HiBit cells) and at most 4.6 nM in the experiment on SZ95 sebocytes (SZ95 cells).
Regarding `CC(C)CS(=O)(=O)c1ccccc1Oc1ccc(-c2noc(CN3C(=O)N(CCC4CCOCC4)C4(CCN(C(=O)c5cncnc5)CC4)C3=O)n2)cc1C(F)(F)F` [Compound 37, 3-((3-(4-(2-(isobutylsulfonyl)phenoxy)-3-(trifluoromethyl)phenyl)-1,2,4-oxadiazol-5-yl)methyl)-8-(pyrimidine-5-carbonyl)-1-(2-(tetrahydro-2H-pyran-4-yl)ethyl)-1,3,8-triazaspiro[4.5]decane-2,4-dione], the Emax with SCD1 (setting [1]) came out at 91.8%; with SCD1 (setting [2]), 87.3%; with SZ95 sebocytes (setting [3]), 145%; in the experiment with SZ95 sebocytes (setting [4]), 140%. Besides, the results for the EC50 in the experiment with SCD1 (SZ95-SCD1-HiBit cells) and with SZ95 sebocytes (SZ95 cells) were 0.066 nM and at most 4.6 nM, respectively.
As for `CC(C)CS(=O)(=O)c1ccccc1Oc1ccc(-c2noc(CN3C(=O)N(CCN4CCOCC4)C4(CCN(C(=O)C5CCN(C)CC5)CC4)C3=O)n2)cc1C(F)(F)F` [Compound 33, 3-((3-(4-(2-(isobutylsulfonyl)phenoxy)-3-(trifluoromethyl)phenyl)-1,2,4-oxadiazol-5-yl)methyl)-8-(1-methylpiperidine-4-carbonyl)-1-(2-morpholinoethyl)-1,3,8-triazaspiro[4.5]decane-2,4-dione], the Emax turned out to be 113% with SCD1 (setting [1]), 107% in the experiment with SCD1 (setting [2]), 121% in the experiment on SZ95 sebocytes (setting [3]) and 116% in the experiment with SZ95 sebocytes (setting [4]). Besides, the figures for the 50% effective concentration (EC50) in the experiment on SCD1 (SZ95-SCD1-HiBit cells) and in the experiment on SZ95 sebocytes (SZ95 cells) were 8.53 nM and at most 4.6 nM, respectively.

The EC50 is the concentration needed to bring the measured effect to its halfway point.

The record behind these values is patent publication US11427586B2, “1,2,4-oxadiazole derivatives as liver X receptor agonists” (NOVARTIS AG, priority 2019, dated 2022).
